Reference: patent US20240108618A1, “KRAS G12C INHIBITOR DOSING REGIMENS” (Eli Lilly and Company, priority 2022, published 2024)
Several values for one entry are separate records, joined by “and”; a condition that tells them apart may be missing. Equal values may be shown once.

Test system: KRAS G12C-mutant advanced solid tumors
Assay: NCT04956640 Phase 1a monotherapy clinical response (BOR, ORR, DCR, DOR, TTR, % change from baseline, treatment duration)
Assay type: in vivo, human
Design: key to Duration of response (months), Median / Best Response: CR: complete response; PR: partial response; uPR: a partial response pending confirmation; SD: stable disease; PD: progressive disease; NE: not estimable
Settings: for Time to response (months), Interquartile range / Time to response (months), Median / Duration of response (months), Median / % Change from Baseline in Sum of Diameters for all Target Lesions / Best Response / Time (months) of Death / Time (months) of Partial Response - Confirmed / Time (months) of Progressive Disease / Time (months) of Partial Response - Pending Confirmation and Ongoing / Patients with best overall response of CR or PR: Phase 1a; for Duration of response (months), Median: Kaplan-Meier estimate; for % Change from Baseline in Sum of Diameters for all Target Lesions / Best Response / Time (months) of Death / Time (months) of Partial Response - Confirmed / Time (months) of Progressive Disease / Time (months) of Partial Response - Pending Confirmation and Ongoing: individual patients
Description: The term “BOR” as used herein refers to best overall response based on investigator assessments using RECIST criteria (version 1.1). The minimum duration for BOR of SD is at least 6 weeks after the date of first dose of study drug.
The term “DOR” as used herein refers to duration of response, wherein DOR in months is calculated as the event or censoring date minus the response start date plus 1 day divided by 30.4375.
The term “ORR” as used herein refers to objective response rate, wherein objective response rate is the proportion of patients with BOR of CR or PR. Objective response rate, unconfirmed, is the proportion of patients with BOR of CR, PR, or uPR.
The term “TTR” as used herein refers to time to response, wherein TTR in months is calculated as response start date minus first dose date plus 1 day divided by 30.4375.
NCT04956640 includes Phase 1a dose escalation (Part A of NCT04956640, see Table 3) followed by a Phase 1b dose expansion (Parts B to E of NCT04956640, see Table 4). […] Phase 1b dose expansion will include 12 cohorts (See Table 4) to further evaluate safety and clinical activity.

[1] = starting dose 50 BID, no prior KRAS G12Ci, listed as compound of Formula I
[2] = starting dose 50 BID, prior KRAS G12Ci Y, listed as compound of Formula I
[3] = starting dose 100 BID, no prior KRAS G12Ci, listed as compound of Formula I
[4] = starting dose 100 BID, prior KRAS G12Ci Y
[5] = starting dose 100 BID, prior KRAS G12Ci Y, listed as compound of Formula I
[6] = starting dose 150 BID, no prior KRAS G12Ci, listed as compound of Formula I
[7] = starting dose 150 BID, prior KRAS G12Ci Y, listed as compound of Formula I
[8] = starting dose 200 BID, no prior KRAS G12Ci, listed as compound of Formula I
[9] = starting dose 200 BID, prior KRAS G12Ci Y, listed as compound of Formula I
[10] = starting dose 50 mg BID (N = 14)
[11] = starting dose 100 mg BID (N = 24)
[12] = starting dose 150 mg BID (N = 25)
[13] = starting dose 200 mg BID (N = 12)
[14] = starting dose 50 mg BID, incl. intrapatient dose escalation
[15] = starting dose 100 mg BID, incl. intrapatient dose escalation
[16] = starting dose 150 mg BID, 11 patients with scan data
[17] = starting dose 200 mg BID, 5 patients with scan data

## C=CC(=O)N1CCN2C(=O)c3cc(F)c(-c4ccc(F)c5sc(N)c(C#N)c45)c(Cl)c3OCC[C@H]2C1 (single isomer, unassigned) [Formula I]
Total (N = 75)
  Time to response (months), Interquartile range: 1.45 months
  Time to response (months), Median: 1.41 months
  Duration of response (months), Median: 6.24 months
[1]
  % Change from Baseline in Sum of Diameters for all Target Lesions: 9.7% and −0.3% and −6.0% and −8.6% and −9.9% and −10.5% and −13.1% and −17.1% and −26.8% and −31.6% and −45.0%
  Best Response: PD and SD (8×) and PR Confirmed (2×)
  Time (months) of Death: 9.8 months and 5.7 months and 1.8 months and 7.4 months and 11.5 months
  Time (months) of Partial Response - Confirmed: 1.3 months and 1.2 months
  Time (months) of Progressive Disease: 6.7 months and 2.8 months (2×) and 1.2 months and 5.3 months and 2.7 months and 11.1 months
[2]
  % Change from Baseline in Sum of Diameters for all Target Lesions: −13.0% and 50.0%
  Best Response: SD and PD
  Time (months) of Death: 8.4 months and 1.8 months
  Time (months) of Progressive Disease: 5.6 months and 1.3 months and 1.0 months
[3]
  % Change from Baseline in Sum of Diameters for all Target Lesions: 0.7% and 0.5% and −4.8% and −6.0% and −8.1% and −17.3% and −21.1% and −22.4% and −22.7% and −25.1% and −29.8% and −30.0% and −32.3% (2×) and −35.4% and −51.4% and −54.0% and −54.8% and −57.1% and −84.4%
  Best Response: SD (10×) and PD (2×) and PR Pending (2×) and PR Confirmed (6×)
  Time (months) of Death: 7.0 months and 10.3 months and 7.6 months and 1.7 months
  Time (months) of Partial Response - Confirmed: 1.3 months and 1.4 months (4×) and 7.7 months
  Time (months) of Partial Response - Pending Confirmation and Ongoing: 5.5 months and 1.2 months
  Time (months) of Progressive Disease: 2.9 months and 2.7 months and 4.2 months and 6.9 months and 4.1 months and 1.2 months and 5.6 months and 1.3 months and 9.5 months
[4]
  Time (months) of Death: 4.2 months
  Time (months) of Partial Response - Confirmed: 3.1 months
  Time (months) of Progressive Disease: 2.8 months
[5]
  % Change from Baseline in Sum of Diameters for all Target Lesions: −4.3% and −40.0% and −44.7%
  Best Response: SD (2×) and PR Confirmed
Starting dose 150 BID, no prior KRAS G12Ci
  Time (months) of Partial Response - Pending Confirmation and Ongoing: 1.2 months
[6]
  % Change from Baseline in Sum of Diameters for all Target Lesions: 27.3% and 4.3% and 3.8% and 3.4% and 0.0% and −0.7% and −5.3% and −7.1% and −8.2% and −11.5% and −16.7% and −18.8% and −23.3% and −24.0% and −37.0% and −41.6% and −51.0% and −52.4% and −60.3% and −67.9% and −91.1%
  Best Response: PD and SD (13×) and PR Pending and PR Confirmed (6×)
  Time (months) of Death: 5.3 months and 4.9 months
  Time (months) of Partial Response - Confirmed: 1.5 months and 4.1 months and 4.2 months and 1.4 months (3×)
  Time (months) of Progressive Disease: 9.7 months and 6.7 months and 7.6 months and 4.1 months and 3.3 months and 1.2 months
Starting dose 150 BID, prior KRAS G12Ci Y
  Time (months) of Death: 3.3 months
[7]
  % Change from Baseline in Sum of Diameters for all Target Lesions: −0.7% and −3.3% and −25.8% and −29.7%
  Best Response: SD (3×) and PD
  Time (months) of Progressive Disease: 4.1 months and 1.2 months
Starting dose 200 BID, no prior KRAS G12Ci
  Time (months) of Death: 4.7 months
[8]
  % Change from Baseline in Sum of Diameters for all Target Lesions: −4.2% and −5.0% and −9.6% and −9.9% and −14.3% and −32.3% and −37.5% and −65.9% and −75.0%
  Best Response: SD (4×) and PD and PR Confirmed (4×)
  Time (months) of Partial Response - Confirmed: 2.8 months and 1.4 months and 1.2 months (2×)
  Time (months) of Progressive Disease: 2.9 months and 2.5 months and 1.3 months and 8.3 months and 7.4 months
Starting dose 200 BID, prior KRAS G12Ci Y
  Time (months) of Progressive Disease: 1.3 months
[9]
  % Change from Baseline in Sum of Diameters for all Target Lesions: 5.3% and 1.4%
  Best Response: PD and SD
[10]
  Patients with best overall response of CR or PR: 2 (14.3) N′ (%)
  Time to response (months), Interquartile range: 0.13 months
  Time to response (months), Median: 1.25 months
  Duration of response (months), Median: NE
[11]
  Patients with best overall response of CR or PR: 7 (29.2) N′ (%)
  Time to response (months), Interquartile range: 1.68 months
  Time to response (months), Median: 1.41 months
  Duration of response (months), Median: 5.45 months
[12]
  Patients with best overall response of CR or PR: 6 (24.0) N′ (%)
  Time to response (months), Interquartile range: 2.69 months
  Time to response (months), Median: 1.46 months
  Duration of response (months), Median: 7.21 months
[13]
  Patients with best overall response of CR or PR: 4 (33.3) N′ (%)
  Time to response (months), Interquartile range: 0.87 months
  Time to response (months), Median: 1.33 months
  Duration of response (months), Median: 6.93 months
human, in vivo
  median time to response: 1.4 month
Other tumor types
  Best observed response PR (unconfirmed and confirmed), patients: 3
  Best observed response SD, patients: 6
Starting dose 50 mg BID
  PR, patients: 0
[14]
  DCR: 75%
  ORR: 0%
Starting dose 100 mg BID
  PD, patients: 2 (2 PANC)
[15]
  DCR: 80%
  ORR: 40%
[16]
  DCR: 90.9%
  ORR: 18.2%
[17]
  DCR: 100%
  ORR: 20%
